Laboratory results from US11313861B2, “Method of evaluating hepatic glucose uptake capacity” (OTSUKA PHARMACEUTICAL CO., LTD., priority 2016, dated 2022).

Assays:
[1] = Blood ^13C6-glucose level and expired air Δ^13C after oral ^13C6-glucose, 6-week-old ZDF fatty vs ZDF lean rats; assay type: in vivo, rat
Procedure: To fasted ZDF fatty rats (6 weeks old; n=4) and ZDF lean rats (6 weeks old; n=4) 10 mg/kg of ^13C6-glucose (13C6-Glucose [D-GLUCOSE⋅(U-13C6, 99%)], Cambridge Isotope Laboratories, Inc. (Andover, Mass., USA)) was orally administered. Blood samples and expired air samples were collected over time before and after the administration. The Δ^13C values of the obtained expired air samples were measured by GC/MS. The ^13C6-glucose levels in the blood samples were measured by LC/MS/MS. The fasting blood glucose levels were measured before the glucose administration.

[2] = rat, in vivo, 10 mg/kg
Procedure: To unfasted ZDF fatty rats (18 weeks old; n=6), ZDF lean rats (18 weeks old; n=6) and SD rats (14 weeks old; n=3) 10 mg/kg of ^13C6-glucose was orally administered. Expired air samples were collected over time before and after the administration and the Δ^13C values of the samples were measured by GC/MS. Three days after the oral administration, 10 mg/kg of ^13C6-glucose was intravenously administered to the same unfasted rats. Expired air samples were collected over time before and after the administration and the Δ^13C values of the samples were measured by GC/MS.
The AUCs of the Δ^13C values were calculated for the oral administration and the intravenous administration, and the difference of the AUCs was calculated. The difference is shown in FIG. 5 as the amount of hepatic glucose uptake (hepatic extraction). […] The mutation is homozygous in the ZDF fatty rats.

[3] = rat, in vivo, po, 10 mg/kg
Procedure: To unfasted rats (ZDF lean, ZDF fatty, SD, each n=12) 10 mg/kg of ^13C6-glucose was orally administered. […] The blood ^13C6-glucose level was measured by LC/MS/MS.

[4] = Blood ^13C6-glucose level and expired air Δ^13C after oral ^13C6-glucose, 7-week-old ZDF fatty vs ZDF lean rats; assay type: in vivo, rat
Procedure: To fasted ZDF fatty rats (7 weeks old; n=4) and ZDF lean rats (7 weeks old; n=4) 10 mg/kg of ^13C6-glucose was orally administered. Blood samples and expired air samples were collected over time before and after the administration. The Δ^13C values of the obtained expired air samples were measured by GC/MS. The ^13C6-glucose levels in the blood samples were measured by LC/MS/MS. The fasting blood glucose levels were measured before the glucose administration.

[5] = Blood ^13C6-glucose level and expired air Δ^13C after oral ^13C6-glucose, iLIRKO vs IRflox mice; assay type: in vivo, mouse
From the text: iLIRKO mouse (inducible liver-specific insulin receptor KO mice) can be used as a model for stage B of pre-onset diabetes, the stage of decreased hepatic extraction ratio, because knock out of insulin receptors can be induced only in the liver (Michael M D, et al., Loss of insulin signaling in hepatocytes leads to severe insulin resistance and progressive hepatic dysfunction. Mol Cell 2000; 6 (1): 87-97). To iLIRKO mice (2 to 3 months old, n=5) and IRflox mice (2 to 3 months old, n=5, control) 10 mg/kg of ^13C6-glucose was orally administered. Blood samples and expired air samples were collected over time before and after the administration. The Δ^13C values of the obtained expired air samples were measured by GC/MS. The ^13C6-glucose levels in the blood samples were measured by LC/MS/MS.

With `OC[C@H]1OC(O)[C@H](O)[C@@H](O)[C@@H]1O` (stereo partly drawn) [^13C6-glucose, D-GLUCOSE⋅(U-13C6, 99%)] the “blood ^13C6 glucose levels” value ([1]; fasted 6-week-old ZDF fatty rats vs ZDF lean rats, 10 mg/kg oral, LC/MS/MS) was “remained lower than those of the ZDF Lean rats”, the “Δ^13C values of the expired air samples” value ([1]; rat, in vivo, po, 10 mg/kg) was “kept higher than those of the ZDF lean rats” and the “amount of hepatic glucose uptake (hepatic extraction), difference of the AUCs of Δ^13C between oral and intravenous administration” value [2] was “high in order of the SD rats, the ZDF lean rats, and the ZDF fatty rats”. The “hepatic extraction ratio of ^13C6-glucose” value [3] was “high in order of the SD rats, the ZDF lean rats, and the ZDF fatty rats”, the “blood ^13C6 glucose levels” value ([4]; fasted 7-week-old ZDF fatty rats vs ZDF lean rats, 10 mg/kg oral, LC/MS/MS) was “remained higher than those of the ZDF Lean rats” and the “Δ^13C values of the expired air samples” value ([4]; rat, in vivo, po, 10 mg/kg) was “kept higher than those of the ZDF lean rats”. For the same compound, the “blood ^13C6 glucose levels” value ([5]; iLIRKO mice vs IRflox mice, 10 mg/kg oral, LC/MS/MS) was “kept higher than those of IRflox mice” and the “Δ^13C values of the expired air samples” value ([5]; mouse, in vivo, po, 10 mg/kg) was “kept higher than those of IRflox mice”.
